Test: xn = mol fraction of the nth substance listed
Conditions: 100 kPa

O + C[N+](C)(C)CCO.NCC(=O)[O-]
x2 = 0
Conditions	speed of sound [m/s]	viscosity [mPa·s]
298.15 K	–	0.89
303.15 K	–	0.8
308.15 K	–	0.72
313.15 K	1529	0.66
318.15 K	–	0.61
323.15 K	–	0.56

C[N+](C)(C)CCO.NCC(=O)[O-] + O
Conditions	speed of sound [m/s]	viscosity [mPa·s]
298.15 K, x1 = 0.1	1927.4	5.83
298.15 K, x1 = 0.2004	2082.9	23.73
298.15 K, x1 = 0.3	2134.5	56.96
298.15 K, x1 = 0.3996	2152.4	99
298.15 K, x1 = 0.5004	2156.2	154.4
298.15 K, x1 = 0.6004	2156	216
298.15 K, x1 = 0.6966	2153.1	274
298.15 K, x1 = 0.8014	2151.8	348
298.15 K, x1 = 0.8996	2146	420
303.15 K, x1 = 0.1	1922.7	5.01
303.15 K, x1 = 0.2004	2073.3	19.44
303.15 K, x1 = 0.3	2122.9	45.62
303.15 K, x1 = 0.3996	2140.5	77.3
303.15 K, x1 = 0.5004	2144.8	115.5
303.15 K, x1 = 0.6004	2143.4	160.8
303.15 K, x1 = 0.8014	2136.2	257
303.15 K, x1 = 0.8996	2133.2	306
303.15 K, x1 = 1	2129.1	363
308.15 K, x1 = 0.2004	2063.4	16.15
308.15 K, x1 = 0.3	2111.5	37.06
308.15 K, x1 = 0.5004	2132.2	89.6
308.15 K, x1 = 0.6004	2130.3	122.8
308.15 K, x1 = 0.6966	2127.8	153.5
308.15 K, x1 = 0.8014	2125.2	191.6
308.15 K, x1 = 0.8996	2120.1	227
308.15 K, x1 = 1	2116	264
313.15 K, x1 = 0.1	1911.9	3.8
313.15 K, x1 = 0.2004	2053.2	13.57
313.15 K, x1 = 0.3	2099.8	30.58
313.15 K, x1 = 0.6004	2118	95.3
313.15 K, x1 = 0.6966	2115	118.6
313.15 K, x1 = 0.8014	2112.1	147.4
313.15 K, x1 = 0.8996	2107.2	172.7
313.15 K, x1 = 1	2103.5	201
318.15 K, x1 = 0.2004	2043	11.51
318.15 K, x1 = 0.6004	2105.6	75.6
318.15 K, x1 = 0.6966	2102.3	92.7
318.15 K, x1 = 0.8014	2098.7	114.4
318.15 K, x1 = 0.8996	2094.2	134.5
323.15 K, x1 = 0.1	1899.4	2.97
323.15 K, x1 = 0.2004	2032.2	9.83
323.15 K, x1 = 0.3	2076.6	21.79
323.15 K, x1 = 0.3996	2091.4	34.59
323.15 K, x1 = 0.5004	2094.9	46.6
323.15 K, x1 = 0.6004	2092.8	60.8
323.15 K, x1 = 0.6966	2089.9	74.1
323.15 K, x1 = 0.8014	2086.3	91
323.15 K, x1 = 0.8996	2081.8	105.2
323.15 K, x1 = 1	2078.3	121.1

Reference: a compilation of properties of binary mixtures (doi:10.1016/j.molliq.2022.120022)
